Measured values reported in the METLIN SMRT retention time set (Domingo-Almenara et al. 2019).

Assay: gradient 5% acetonitrile 3 min, to 50% in 2 min, to 85% in 15 min, held 3 min, 100 µL/min
Details: column: Zorbax Extend-C18 2.1 x 50 mm; eluents: water / acetonitrile, 0.1% formic acid
How it was run: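 Pure standards were run in mixtures of ~100 molecules by HPLC coupled to a quadrupole time-of-flight mass spectrometer. The column was a Zorbax Extend-C18 (2.1 × 50 mm, 1.8 μm) at 100 μL/min, with water and acetonitrile each containing 0.1% formic acid, in positive and negative ionization mode. Dead and dwell volumes were 40 μL and 900 μL. Retention time was taken from computationally picked adduct peaks, each manually inspected, with data collected over 3 months.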

Row | Structure (SMILES) | RP-LC retention time [s]
1 | Cc1ccc(CNC(=O)Cn2nc3n(c2=O)CCCCC3)cc1 | 675
2 | Cc1oc(C2CCN(C(=O)Nc3ccc(Cl)cc3F)CC2)nc1C(=O)N(C)C | 714
3 | COc1ccc(-c2cn3cccnc3n2)cc1NC(=O)c1ccccc1Br | 685
4 | Cc1noc(COC2CCCN(C(=O)C3(c4ccccc4)CC3)C2)n1 (centres undefined) | 791
5 | CCC(C)NC(=O)N1CC(Oc2ccc(-c3nc(C)no3)cc2)C1 (centres undefined) | 873
6 | CCn1cc(S(=O)(=O)N2CCC(N3CC4(CCCCC4)C3c3ccccc3)CC2)cn1 (centres undefined) | 660
7 | O=C(NCc1cnoc1-c1ccc(F)cc1)c1c(F)cccc1F | 817
8 | Cc1cc(C)c(NC(=O)Cn2cccc(-c3nc(-c4ccc(Br)cc4)no3)c2=O)c(C)c1 | 1030
9 | CCN1CCC2(CC1)OC(=O)C(C)=C2C(=O)N1CCN(c2cccc(OC)c2)CC1 | 634
10 | Cc1ccc(-c2cc(C(=O)N3CCN(c4ccc(N5CCOCC5)nn4)CC3)[nH]n2)c(C)c1 | 638
11 | O=C1C(Nc2ccccc2)=CC(=O)c2ncccc21 | 734
12 | Cc1ccc(C2c3[nH]c4ccccc4c3CCN2C(=O)C2CC2)cc1 (centres undefined) | 1110
13 | Cc1noc(-c2nn(C)c3c2CN(C(=O)NCc2ccccc2)CC3)n1 | 761
14 | CN(CCNC(=O)Cn1c2ccccc2c2cnn(C)c(=O)c21)Cc1ccccc1 | 640
15 | CCC(=O)N1c2ccccc2NC2=C(C(=O)CC(C)(C)C2)C1c1ccc(C#N)cc1 (centres undefined) | 797
16 | CN(C(=O)CN(Cc1ccc(Cl)cc1)S(=O)(=O)c1cccnc1)c1ccccc1 | 917
17 | COc1ccc(-n2ncc3c(=O)n(Cc4nc(-c5ccc(C)c(C)c5)no4)cnc32)cc1 | 1080
18 | CN1C2CCC1CC(OC(=O)c1c[nH]c3ccccc13)C2 (centres undefined) | 644
19 | CCc1cccc(NC(=O)Cn2nc3cc(C)nc(Nc4ccc(F)c(C)c4)n3c2=O)c1 | 1190
20 | Cc1ccc(C(C)NC(=O)c2ccc(CN3CCN(C(C)C)C(=O)C3=O)cc2)c(C)c1 (centres undefined) | 761
21 | CCn1nc(C)c(CCNC(=O)c2cc3c(=O)n(Cc4ccco4)ccc3nc2C)c1C | 610

Continued, values first:

Row | RP-LC retention time [s] | Structure (SMILES)
22 | 692 | Cc1nn2c(CNC(=O)c3ccc(C(F)(F)F)cc3)c(C)nc2s1
23 | 1140 | CCOc1ccc(-n2c(=O)c3sccc3n(Cc3nc(-c4ccc(F)c(Cl)c4)no3)c2=O)cc1
24 | 833 | COc1ccc(CCNc2nc(N3CCc4cc(OC)c(OC)cc4C3)c3cc(OC)c(OC)cc3n2)cc1OC
25 | 790 | CCc1nc2cc(N3CCCC(C(=O)NCC(C)C)C3)cnc2nc1CC (centres undefined)
26 | 987 | Cn1nc(-c2nnc(-c3ccc(F)cc3)o2)c2c1CCN(S(=O)(=O)c1cccc(Cl)c1)C2
27 | 664 | CCCn1cc(C(=O)N2CCCC2)c2nn(-c3ccccc3)c(=O)c-2c1
28 | 786 | Cc1noc(C2CN(C(=O)Nc3cccc(Cl)c3)CC23CCOCC3)n1 (centres undefined)
29 | 672 | COc1cccc2cc(-c3ccc(OCC(=O)N4CCC(C(N)=O)CC4)cc3)c(=O)oc12
30 | 1040 | CCc1ccc(-c2csc(Nc3ccc(S(=O)(=O)Nc4nc(C)cc(C)n4)cc3)n2)cc1
31 | 1040 | Cc1ccccc1CNC(=O)C1(C)CCCN(C(=O)Nc2ccc(F)c(Cl)c2)C1 (centres undefined)
32 | 634 | CNc1nc(Nc2ccccc2F)nc2ccccc12
33 | 958 | Cc1ccc(CNc2nnc(-c3nc(C4CC4)no3)c3ccccc23)cc1
34 | 1020 | CCc1nn2c(CNC(=O)c3ccc(C(F)(F)F)cc3)c(-c3ccccc3)nc2s1
35 | 711 | CCCn1cc(-c2ccncc2)cc1C(=O)NCc1cc(F)cc(F)c1
36 | 784 | O=C(C1=NN(Cc2ccccc2)c2ccccc2S1(=O)=O)N1CCCC1
37 | 696 | c1ccc(-c2nc[nH]c2-c2ccccc2)cc1
38 | 1200 | COc1cccc(S(=O)(=O)N2CCc3nc(-c4ccc(Cl)cc4)ncc3C2)c1
39 | 703 | COc1cc(NC(=O)Cn2cnc3nc(N4CCCC4)ncc3c2=O)cc(OC)c1
40 | 1270 | COc1ccc(C2Cn3nnc(-c4nc(-c5ccc(C(F)(F)F)cc5)no4)c3CO2)cc1 (centres undefined)
41 | 971 | COCC(=O)N1CCc2c([nH]c3ccccc23)C1c1ccc(C)cc1 (centres undefined)
42 | 634 | Cc1ccc(CN2CCC(CNC(=O)CSc3nc4ccccc4n(C)c3=O)C2)cc1 (centres undefined)
43 | 620 | COCCN1C(=O)[C@H]2CN(Cc3ccc(OC)c(OC)c3Cl)C[C@H]2C1=O
44 | 619 | Nc1ccc(-c2ccc3ccccc3n2)cc1
